The values below come from paper PMC8067507, “Aryl Urea Based Scaffolds for Multitarget Drug Discovery in Anticancer Immunotherapies” (Pharmaceuticals, 2021).

Series [1] has as its system all tested cell lines (HT-29, MCF-7, HeLa, A549, HMEC-1, HEK-293). Set-up: method as in PMID 30878834. The conditions noted are these: chlorophenyl derivatives of the previous study; read-out: IC50 values (range over cell lines); cited from earlier work.
The test system of a further series is HMEC-1 cells. Kind of series: Tube formation inhibition assay. The class given is cell-based, human. As to conditions: HMEC-1 on Matrigel, 20 h incubation; average of three experiments. On the procedure:
(§1) HT-29, MCF-7, HeLa, A549 and HEK-293 cell lines were maintained in Dulbecco’s modified Eagle’s medium (DMEM) containing glucose (1 g/L), glutamine (2 mM), penicillin (50 μg/mL), streptomycin (50 μg/mL), and amphotericin B (1.25 μg/mL), supplemented with 10% FBS. HMEC-1 cell line was maintained in Dulbecco’s modified Eagle’s medium (DMEM)/low glucose containing glutamine (2 mM), penicillin (50 μg/mL), streptomycin (50 μg/mL), and amphotericin B (1.25 μg/mL), supplemented with 10% FBS. For the development of tube formation assays in Matrigel, HMEC-1 cells were cultured in EGM-2MV Medium supplemented with EGM-2MV SingleQuots.
Wells of an IBIDI μ-slide angiogenesis (IBIDI, Martinsried, Germany) were coated with 12 μL of Matrigel® (10 mg/mL, BD Biosciences) at 4 °C. After gelatinization at 37 °C for 30 min, HMEC-1 cells were seeded at 2 × 10^4 cells/well in 35 μL of culture medium on top of the Matrigel and were incubated 30 min at 37 °C while are attached. Then, compounds were added dissolved in 35 μL of culture medium and after 20 h of incubation at 37 °C, tube destruction was evaluated.

The test system of series [2] is A549 (pulmonary adenocarcinoma). Kind of series: Cell proliferation assay (MTT). Type of series: cell-based. The conditions noted are these: Homo sapiens, A549, 48 h, 2 days incubation, average ± SD of three experiments.
From the text: (§2) The ability of Ureas 13–33 to inhibit cell proliferation was established by means of their IC50 values towards the human tumor cell lines HT-29 (colon adenocarcinoma), MCF-7 (breast adenocarcinoma), HeLa (epithelioid cervix carcinoma) and A549 (pulmonary adenocarcinoma), as well as towards the endothelial cell line HMEC-1 (human microvascular endothelial cells) and the non-tumor cell line HEK-293 (human embryonic kidney cells).
as §1
(§3) In 96-well plates, 3 × 10^3 (HeLa, A549, HMEC-1, HEK-293) or 5 × 10^3 (HT-29, MCF-7) cells per well were incubated with serial dilutions of the tested compounds in a total volume of 100 μL of their respective growth media. The 3-(4,5-dimethylthiazol-2-yl)-2,5-diphenyltetrazolium bromide (MTT; Sigma Chemical Co.) dye reduction assay in 96-well microplates was used. After 2 days of incubation (37 °C, 5% CO2 in a humid atmosphere), 10 μL of MTT (5 mg/mL in phosphate-buffered saline, PBS) was added to each well, and the plate was incubated for a further 3 h (37 °C). After that, the supernatant was discarded and replaced by 100 µL of DMSO to dissolve formazan crystals. The absorbance was then read at 540 nm by spectrophotometry. For all concentrations of compound, cell viability was expressed as the percentage of the ratio between the mean absorbance of treated cells and the mean absorbance of untreated cells. Three independent experiments were performed, and the IC50 values (i.e., concentration half inhibiting cell proliferation) were graphically determined using GraphPad Prism 4 software.

In series [3] the test system is HeLa (epithelioid cervix carcinoma). The experiment in a line: Cell proliferation assay (MTT). Type of series: cell-based. The conditions noted are these: Homo sapiens, 48 h, 2 days incubation, average ± SD of three experiments.
From the text: as §2, §1, §3

The test system of series [4] is HT-29 (colon adenocarcinoma). The experiment in a line: Cell proliferation assay (MTT). The class given is cell-based. The conditions noted are these: Homo sapiens, HT-29, 48 h, 2 days incubation, average ± SD of three experiments.
From the text: as §2, §1, §3

The subject of series [5] is HMEC-1 (human microvascular endothelial cells). Kind of series: Cell proliferation assay (MTT). The conditions noted are these: HMEC-1, 48 h, 2 days incubation, average ± SD of three experiments. The class given is cell-based.
From the text: as §2, §1, §3

Series [6] relates to MCF-7 (breast adenocarcinoma). Kind of series: Cell proliferation assay (MTT). Type of series: cell-based. The conditions noted are these: Homo sapiens, MCF7, 48 h, 2 days incubation, average ± SD of three experiments.
From the text: as §2, §1, §3

Series [7] has as its system HEK-293 (human embryonic kidney cells). Kind of series: Cell proliferation assay (MTT). Type of series: cell-based. The conditions noted are these: HEK293, 48 h, 2 days incubation, average ± SD of three experiments.
From the text: as §2, §1, §3

The next series relates to HT-29 cells. Kind of series: Cell proliferation evaluation in co-cultures: HT-29 with Jurkat T cells. Type of series: cell-based, human. As to conditions: IFN-γ stimulated HT-29 co-cultured with Jurkat T cells, 10 µM, 24 h; five experiments. The method, then:
We also studied the effect of Compounds 16, 23, 26 and 33 on tumor cell proliferation in the presence of PD-1 expressing Jurkat T-cells. For this assay, first interferon γ stimulated HT-29 cells were treated for 24 h with the selected compounds at 10 µM in presence of Jurkat T cells. Then, living cells were counted using trypan blue and a Neubauer chamber and by flow cytometry.
In 12-well plates, 10^5 HT-29 cells per well were seeded and incubated for 24 h with cell culture medium supplemented with IFN-γ (10 ng/mL; human, Invitrogen®) then medium was change by one containing 4 × 10^5 Jurkat T cells per well and 10 μM of the corresponding compound or DMSO for the control. After 24 h of incubation, supernatants were collected to determine Jurkat T cell living cells and, on the other hand, HT-29 cells were collected with trypsin. Both types of suspension cells were counted with the Neubauer chamber and trypan blue and also by flow cytometry.

In series [8] the target is T1, VEGFR-2 (Homo sapiens, UniProt P35968). Kind of series: VEGFR-2 quantification by flow cytometry in HT-29. Type of series: cell-based. Set-up: Both membrane and total VEGFR-2 were relatively determined using dimethyl sulfoxide (DMSO) treated cells as a negative control; endogenous in cells; host or cells: HT-29 (colon adenocarcinoma) and HMEC-1 (human microvascular endothelial cells). As to conditions: 24 h.
Method: (§7) We performed the study on both a HT-29 cancer cell line and a human microvessel endothelial cell line (HMEC-1). […] The effect of these selected derivatives on VEGFR-2, on HT-29 tumor cell line and on human microvessel endothelial cells (HMEC) was determined by flow cytometry technique. […] For these assays, cells were incubated for 24 h in the presence of the corresponding compounds at 10 µM concentration.

For series [9], the target named is T1, VEGFR-2. The experiment in a line: VEGFR-2 quantification by flow cytometry in HMEC-1. The conditions noted are these: 10 µM, 24 h, relative to DMSO control. Type of series: cell-based. Set-up: Both membrane and total VEGFR-2 were relatively determined using dimethyl sulfoxide (DMSO) treated cells as a negative control; endogenous in cells; host or cells: HMEC-1 (human microvascular endothelial cells).
Method: as §7

In series [10] the test system is c-Myc. The experiment in a line: c-Myc quantification by flow cytometry in HT-29. As to conditions: HT-29, 10 μM, 24 h, referred to control (DMSO). Type of series: cell-based, human. On the procedure: (§4) We evaluated the effect of the selected compounds on PD-L1 and on c-Myc proteins by flow cytometry after 24 h treatment at 10 μM concentration of compounds. Both, PD-L1 and c-Myc were relatively determined using DMSO treated cells as a negative control and BMS-8 as a positive one.
(§5) For the detection of total PD-L1 and c-Myc, cancer cells were seeded (3 × 10^5 cells/well) in 6-well plates and were incubated with the corresponding compounds for 24 h. Then they were collected, fixed, treated with 0.5% Triton^TM X-100 and stained with Alexa Fluor® 647 Rabbit monoclonal Anti-PD-L1 (ab215251) and FITC Rabbit monoclonal anti-c-Myc (ab223913).
(§6) We also checked results performing ELISA tests. For ELISA tests, lysates were collected, protein quantification was carried out by Bradford test and, then, PD-L1 and c-Myc were quantified using Human PD-L1 ELISA Kit 28-8 (ab214565) and c-Myc (Total) Human ELISA Kit (KHO2041), respectively, according to the manufacturer’s instructions.

Series [11] has as its target T2, PD-L1 (Homo sapiens, UniProt Q9NZQ7). The experiment in a line: PD-L1 quantification by flow cytometry in HT-29. As to conditions: HT-29, 10 μM, 24 h, referred to control (DMSO). Type of series: cell-based. The method, then:
as §4, §5, §6

Series [12] has as its target T2, PD-L1. Kind of series: PD-L1 quantification by flow cytometry in A-549. The class given is cell-based. Also on record: endogenous in cells; host or cells: A-549 cancer cells. As to conditions: A-549, 10 μM, 24 h, referred to control (DMSO). The method, then:
as §4, §5, §6

Series [13] has as its system c-Myc. Kind of series: c-Myc quantification by flow cytometry in A-549. Type of series: cell-based, human. As to conditions: A-549, 10 μM, 24 h, referred to control (DMSO). On the procedure:
as §4, §5, §6

Where [14] appears, read: HT-29, 10 µM, relative to DMSO control.

Structures are written as SMILES.

T1 sequence (P35968 20-1356): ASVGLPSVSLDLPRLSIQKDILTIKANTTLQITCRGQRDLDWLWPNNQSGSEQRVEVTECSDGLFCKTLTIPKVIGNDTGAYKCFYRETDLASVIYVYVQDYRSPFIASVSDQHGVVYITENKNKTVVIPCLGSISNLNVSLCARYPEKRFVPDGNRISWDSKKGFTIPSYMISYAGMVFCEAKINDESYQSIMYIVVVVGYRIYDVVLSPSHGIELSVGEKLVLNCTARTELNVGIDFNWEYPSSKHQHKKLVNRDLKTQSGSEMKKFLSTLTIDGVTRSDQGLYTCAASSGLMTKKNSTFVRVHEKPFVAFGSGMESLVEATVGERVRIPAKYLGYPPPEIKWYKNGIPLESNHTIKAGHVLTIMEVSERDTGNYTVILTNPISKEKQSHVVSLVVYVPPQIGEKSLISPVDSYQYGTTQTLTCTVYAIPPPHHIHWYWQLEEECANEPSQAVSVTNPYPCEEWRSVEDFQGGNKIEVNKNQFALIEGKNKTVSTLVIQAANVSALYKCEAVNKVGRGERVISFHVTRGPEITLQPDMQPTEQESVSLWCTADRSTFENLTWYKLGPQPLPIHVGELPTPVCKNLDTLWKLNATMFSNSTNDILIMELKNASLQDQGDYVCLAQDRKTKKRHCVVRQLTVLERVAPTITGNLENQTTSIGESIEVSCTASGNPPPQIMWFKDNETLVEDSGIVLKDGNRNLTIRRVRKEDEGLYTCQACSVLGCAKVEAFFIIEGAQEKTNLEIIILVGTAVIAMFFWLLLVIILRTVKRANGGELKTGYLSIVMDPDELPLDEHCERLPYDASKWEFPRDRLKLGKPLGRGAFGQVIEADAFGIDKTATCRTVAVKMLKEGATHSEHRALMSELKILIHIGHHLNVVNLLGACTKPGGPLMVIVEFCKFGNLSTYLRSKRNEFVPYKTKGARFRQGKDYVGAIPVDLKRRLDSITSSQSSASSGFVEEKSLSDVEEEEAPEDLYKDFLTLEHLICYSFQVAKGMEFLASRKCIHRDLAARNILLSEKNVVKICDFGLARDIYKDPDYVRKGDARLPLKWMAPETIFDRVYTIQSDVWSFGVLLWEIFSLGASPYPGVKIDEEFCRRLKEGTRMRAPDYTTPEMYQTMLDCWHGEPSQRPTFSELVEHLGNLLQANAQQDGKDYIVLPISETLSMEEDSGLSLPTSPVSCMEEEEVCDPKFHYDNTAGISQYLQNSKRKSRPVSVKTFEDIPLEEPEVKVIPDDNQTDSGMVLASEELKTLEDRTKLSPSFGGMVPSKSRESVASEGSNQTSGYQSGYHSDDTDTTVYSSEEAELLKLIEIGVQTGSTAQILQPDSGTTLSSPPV
T2 sequence (Q9NZQ7 19-290): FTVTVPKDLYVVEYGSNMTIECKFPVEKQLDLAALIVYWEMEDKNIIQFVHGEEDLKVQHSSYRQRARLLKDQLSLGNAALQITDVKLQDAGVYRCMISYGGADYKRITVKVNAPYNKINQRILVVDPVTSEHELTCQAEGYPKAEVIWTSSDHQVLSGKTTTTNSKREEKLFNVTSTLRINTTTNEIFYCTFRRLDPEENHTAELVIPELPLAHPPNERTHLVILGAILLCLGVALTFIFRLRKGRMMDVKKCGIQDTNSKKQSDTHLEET

Take `COc1ccc(/C=C/c2cccc(NC(=O)Nc3cccc(Cl)c3)c2)cc1` [Compound 5]: the half-maximal inhibitory concentration (IC50) in series [1] is 2 to 11 µM.

For the compound `CCN(CC)CCNC(=O)c1c(C)[nH]c(/C=C2\C(=O)Nc3ccc(F)cc32)c1C` [Sunitinib, sunitinib, reference compound], in the series on HMEC-1 cells, the “Minimum Active Conc. (inhibition of tube formation)” value came to 3 µM.

Take `CNC(=O)c1cc(Oc2ccc(NC(=O)Nc3ccc(Cl)c(C(F)(F)F)c3)cc2)ccn1` [Sorafenib, sorafenib, reference compound]: the IC50 in series [2] stood at 27 ± 2 µM; in [3], 6.1 ± 0.4 µM; in series [4] it was 17 ± 4 µM; in series [5] it was 34 ± 3 µM; in series [6], 14 ± 4 µM; in [7], 5 ± 0.7 µM. For the same compound, the “Minimum Active Conc. (inhibition of tube formation)” value in the series on HMEC-1 cells was found to be 10 µM.

With `COc1ccc(/C=C/c2cccc(NC(=O)Nc3ccc(Br)cc3)c2)cc1` [Compound 23], the “Living HT-29 cell proliferation (%)” value in the series on HT-29 cells amounted to 64%. In addition, at VEGFR-2 [8] (10 µM, statement for HT-29 and HMEC-1, read-out: inhibition of both membrane and total VEGFR-2), the inhibition at 10 µM is more than 50%. The “Membrane VEGFR-2 (%)” value was 36 ± 9% on VEGFR-2 [8] (setting [14]) and 39 ± 5% on VEGFR-2 [9]. Also, the “Total VEGFR-2 (%)” value at VEGFR-2 [8] (setting [14]) is listed as 39 ± 8%; on VEGFR-2 [9], 74 ± 8%. The IC50 worked out at 3 ± 0.4 µM in series [2]; 3.1 ± 0.1 µM in series [3]; 0.4 ± 0.3 µM in series [4]; 1.8 ± 0.3 µM in [5]; 0.3 ± 0.2 µM in series [6]; 0.7 ± 0.3 µM in series [7]. The “Minimum Active Conc. (inhibition of tube formation)” value in the series on HMEC-1 cells is reported as 1 µM. Also, the results for the “c-Myc (%) relative expression” value in the series on c-Myc [10] and with c-Myc [13] were 49 ± 8% and 34 ± 4%, respectively. The figures for the “PD-L1 (%) relative expression” value at PD-L1 [11] and at PD-L1 [12] were 18 ± 5% and 16 ± 6%, respectively.

For `COc1ccc(/C=C/c2cccc(NC(=O)Nc3ccc(Cl)cc3)c2)cc1` [Compound 6], in series [1], the 50% inhibitory concentration (IC50) is 0.4 to 1.8 µM.

As for `COc1ccc(/C=C\c2cccc(NC(=O)Nc3cccc(Br)c3)c2)cc1` [Compound 15], the melting point came out at 174 °C. The same compound displayed a concentration for half-maximal inhibition (IC50) in series [2] of 38 ± 6 µM. This compound also had an IC50 in [3] of 30 ± 7 µM. This compound also showed an IC50 in series [4] of 25 ± 2 µM. In addition, in series [5], 24 ± 4 µM corresponded to half-maximal inhibition (IC50). In series [6], this compound came in with a half-maximal inhibitory concentration (IC50) of 28 ± 5 µM. It took 23 ± 2 µM to reach half-maximal inhibition in [7] (IC50).
